# ChEMBL document CHEMBL1201862, “PubChem BioAssay data set” (2004)
#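 Results reflect a 48-hour exposure of cells in 96-well plates to compound at five concentrations. GI50: concentration for 50% inhibition of growth.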 Active and inactive are the calls of the source. No stated cut-off is given here; in the data, active = GI50 up to about 1.1 µM and inactive = higher.
# How the values were obtained:
# Assay in all cases: growth of human tumour cells (NCI), 48 h
# PC-3 = tested on: PC-3
# RXF 393 = tested on: RXF 393
# MDA-MB-435 = tested on: MDA-MB-435
# Malme-3M = tested on: Malme-3M
# OVCAR-3 = tested on: OVCAR-3
# OVCAR-4 = tested on: OVCAR-4
# SK-MEL-5 = tested on: SK-MEL-5
# RPMI-8226 = tested on: RPMI-8226
# HCT-15 = tested on: HCT-15
# SN12C = tested on: SN12C
# COLO 205 = tested on: COLO 205
# NCI-H226 = tested on: NCI-H226
# SNB-75 = tested on: SNB-75
# HT-29 = tested on: HT-29
# SNB-19 = tested on: SNB-19
# SK-OV-3 = tested on: SK-OV-3
# MDA-MB-231 = tested on: MDA-MB-231
# K562 = tested on: K562
# UACC-62 = tested on: UACC-62
# Hs-578T = tested on: Hs-578T
# BT-549 = tested on: BT-549
# HCT-116 = tested on: HCT-116
# OVCAR-8 = tested on: OVCAR-8
# SK-MEL-28 = tested on: SK-MEL-28
# SF-295 = tested on: SF-295
# SR = tested on: SR
# MDA-N = tested on: MDA-N
# NCI/ADR-RES = tested on: NCI/ADR-RES
# SK-MEL-2 = tested on: SK-MEL-2
# NCI-H522 = tested on: NCI-H522
# NCI-H23 = tested on: NCI-H23
# M14 = tested on: M14
# OVCAR-5 = tested on: OVCAR-5
# HOP-62 = tested on: HOP-62
# UO-31 = tested on: UO-31
# DU-145 = tested on: DU-145
# CAKI-1 = tested on: CAKI-1
# T47D = tested on: T47D
# KM12 = tested on: KM12
# U-251 = tested on: U-251
# IGROV-1 = tested on: IGROV-1
# HOP-92 = tested on: HOP-92
# A498 = tested on: A498
# MCF7 = tested on: MCF7
# MOLT-4 = tested on: MOLT-4
# HL-60 = tested on: HL-60
# NCI-H460 = tested on: NCI-H460
# CCRF-CEM = tested on: CCRF-CEM
# HCC 2998 = tested on: HCC 2998
# UACC-257 = tested on: UACC-257
# SF-539 = tested on: SF-539
# SW-620 = tested on: SW-620
# SF-268 = tested on: SF-268
# 786-0 = tested on: 786-0
# TK-10 = tested on: TK-10
# EKVX = tested on: EKVX
# LOX IMVI = tested on: LOX IMVI
# ACHN = tested on: ACHN
# A549 = tested on: A549
smiles,measurement,setting,value
CO/C(=N/N1CC1C(F)(F)F)c1ccncc1 (stereo not given),GI50,PC-3,> 10 µM (inactive)
same,GI50,RXF 393,45.1 µM (inactive)
same,GI50,MDA-MB-435,> 100 µM (inactive)
same,GI50,Malme-3M,> 100 µM (inactive)
same,GI50,OVCAR-3,> 100 µM (inactive)
same,GI50,OVCAR-4,> 100 µM (inactive)
same,GI50,SK-MEL-5,> 100 µM (inactive)
same,GI50,RPMI-8226,> 100 µM (inactive)
same,GI50,HCT-15,> 100 µM
same,GI50,SN12C,> 100 µM (inactive)
same,GI50,COLO 205,> 100 µM (inactive)
same,GI50,NCI-H226,> 100 µM (inactive)
same,GI50,SNB-75,> 100 µM (inactive)
same,GI50,HT-29,> 100 µM (inactive)
same,GI50,SNB-19,> 100 µM (inactive)
same,GI50,SK-OV-3,54.7 µM (inactive)
same,GI50,MDA-MB-231,> 100 µM (inactive)
same,GI50,K562,> 100 µM (inactive)
same,GI50,UACC-62,> 100 µM (inactive)
same,GI50,Hs-578T,> 100 µM (inactive)
same,GI50,BT-549,43.3 µM (inactive)
same,GI50,HCT-116,> 100 µM (inactive)
same,GI50,OVCAR-8,> 100 µM (inactive)
same,GI50,SK-MEL-28,> 100 µM (inactive)
same,GI50,SF-295,> 100 µM (inactive)
same,GI50,SR,> 100 µM (inactive)
same,GI50,MDA-N,> 100 µM (inactive)
same,GI50,NCI/ADR-RES,> 100 µM (inactive)
same,GI50,SK-MEL-2,> 100 µM (inactive)
same,GI50,NCI-H522,> 100 µM (inactive)
same,GI50,NCI-H23,> 100 µM (inactive)
same,GI50,M14,> 100 µM (inactive)
same,GI50,OVCAR-5,> 100 µM (inactive)
same,GI50,HOP-62,> 100 µM (inactive)
same,GI50,UO-31,46.8 µM (inactive)
same,GI50,DU-145,> 100 µM (inactive)
same,GI50,CAKI-1,> 100 µM (inactive)
same,GI50,T47D,> 100 µM (inactive)
same,GI50,KM12,> 100 µM (inactive)
same,GI50,U-251,> 100 µM (inactive)
same,GI50,IGROV-1,> 100 µM (inactive)
same,GI50,HOP-92,> 100 µM (inactive)
same,GI50,A498,> 100 µM (inactive)
same,GI50,MCF7,> 100 µM (inactive)
same,GI50,MOLT-4,30.8 µM (inactive)
same,GI50,HL-60,> 100 µM (inactive)
same,GI50,NCI-H460,> 100 µM (inactive)
same,GI50,CCRF-CEM,88.1 µM (inactive)
N#CC(=N)c1ncn(-c2ccccc2N)c1N,GI50,PC-3,> 100 µM (inactive)
same,GI50,MDA-MB-435,> 100 µM (inactive)
same,GI50,Malme-3M,> 100 µM (inactive)
same,GI50,OVCAR-3,> 100 µM (inactive)
same,GI50,OVCAR-4,> 100 µM (inactive)
same,GI50,HCC 2998,> 100 µM (inactive)
same,GI50,SK-MEL-5,> 100 µM (inactive)
same,GI50,RPMI-8226,> 100 µM (inactive)
same,GI50,HCT-15,> 100 µM
same,GI50,SN12C,> 100 µM (inactive)
same,GI50,COLO 205,> 100 µM (inactive)
same,GI50,NCI-H226,> 100 µM (inactive)
same,GI50,SNB-75,> 100 µM (inactive)
same,GI50,HT-29,> 100 µM (inactive)
same,GI50,SNB-19,> 100 µM (inactive)
same,GI50,SK-OV-3,> 100 µM (inactive)
same,GI50,MDA-MB-231,> 100 µM (inactive)
same,GI50,UACC-257,> 100 µM (inactive)
same,GI50,K562,> 100 µM (inactive)
same,GI50,UACC-62,> 100 µM (inactive)
same,GI50,Hs-578T,> 100 µM (inactive)
same,GI50,BT-549,> 100 µM (inactive)
same,GI50,HCT-116,> 100 µM (inactive)
same,GI50,OVCAR-8,> 100 µM (inactive)
same,GI50,SF-539,> 100 µM (inactive)
same,GI50,SK-MEL-28,> 100 µM (inactive)
same,GI50,SF-295,> 100 µM (inactive)
same,GI50,SR,> 100 µM (inactive)
same,GI50,MDA-N,> 100 µM (inactive)
same,GI50,SW-620,> 100 µM (inactive)
same,GI50,NCI/ADR-RES,> 100 µM (inactive)
same,GI50,SF-268,> 100 µM (inactive)
same,GI50,SK-MEL-2,> 100 µM (inactive)
same,GI50,NCI-H522,> 100 µM (inactive)
same,GI50,NCI-H23,> 100 µM (inactive)
same,GI50,786-0,> 100 µM (inactive)
same,GI50,M14,> 100 µM (inactive)
same,GI50,OVCAR-5,> 100 µM (inactive)
same,GI50,HOP-62,> 100 µM (inactive)
same,GI50,UO-31,> 100 µM (inactive)
same,GI50,DU-145,> 100 µM (inactive)
same,GI50,TK-10,> 100 µM (inactive)
same,GI50,CAKI-1,> 100 µM (inactive)
same,GI50,T47D,> 100 µM (inactive)
same,GI50,EKVX,> 100 µM (inactive)
same,GI50,LOX IMVI,> 100 µM (inactive)
same,GI50,ACHN,> 100 µM (inactive)
same,GI50,KM12,> 100 µM (inactive)
same,GI50,U-251,> 100 µM (inactive)
same,GI50,IGROV-1,> 100 µM (inactive)
same,GI50,A498,> 100 µM (inactive)
same,GI50,MCF7,> 100 µM (inactive)
same,GI50,MOLT-4,> 100 µM (inactive)
same,GI50,HL-60,> 100 µM (inactive)
same,GI50,NCI-H460,> 100 µM (inactive)
same,GI50,A549,> 100 µM (inactive)
same,GI50,CCRF-CEM,> 100 µM (inactive)
